Data on six compounds can be found in BindingDB's records for doi:10.1021/jm0503751 (University of Dublin, 2006).

A word on the Ki: it is the dissociation constant of the complex between target and ligand, obtained from inhibition or displacement.

In assay [1] the target is T1, Alpha-1A adrenergic receptor (Homo sapiens, UniProt P35348).
T1 sequence (P35348 whole entry): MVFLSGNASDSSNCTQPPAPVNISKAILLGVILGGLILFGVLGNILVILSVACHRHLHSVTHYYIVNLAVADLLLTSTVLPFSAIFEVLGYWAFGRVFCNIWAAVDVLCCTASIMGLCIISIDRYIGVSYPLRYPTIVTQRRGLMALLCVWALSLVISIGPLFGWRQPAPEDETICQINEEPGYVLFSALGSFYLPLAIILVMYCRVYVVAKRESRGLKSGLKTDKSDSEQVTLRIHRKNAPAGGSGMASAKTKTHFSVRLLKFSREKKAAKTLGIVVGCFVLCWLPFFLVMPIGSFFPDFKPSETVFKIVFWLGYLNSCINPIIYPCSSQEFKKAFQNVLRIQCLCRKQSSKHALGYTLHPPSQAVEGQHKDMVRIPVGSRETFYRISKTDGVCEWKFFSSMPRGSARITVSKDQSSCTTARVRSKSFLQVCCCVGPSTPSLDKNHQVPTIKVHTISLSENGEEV

Assay [2] deals with T2, Alpha-1B adrenergic receptor (Mus musculus, UniProt Q05D47).
T2 sequence (Q05D47 whole entry): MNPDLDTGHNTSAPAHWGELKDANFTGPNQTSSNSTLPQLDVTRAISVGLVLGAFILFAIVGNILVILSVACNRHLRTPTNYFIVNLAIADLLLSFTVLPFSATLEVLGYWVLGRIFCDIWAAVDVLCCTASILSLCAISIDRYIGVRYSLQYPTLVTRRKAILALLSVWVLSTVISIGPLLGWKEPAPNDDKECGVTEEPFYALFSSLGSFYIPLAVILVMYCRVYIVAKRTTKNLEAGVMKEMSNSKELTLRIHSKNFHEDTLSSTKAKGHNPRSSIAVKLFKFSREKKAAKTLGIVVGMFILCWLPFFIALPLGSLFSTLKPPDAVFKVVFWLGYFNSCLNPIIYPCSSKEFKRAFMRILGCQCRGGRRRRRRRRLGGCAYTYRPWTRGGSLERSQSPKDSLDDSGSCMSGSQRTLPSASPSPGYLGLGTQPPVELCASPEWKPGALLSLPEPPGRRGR

In the case of `CC(C)(Cc1c[nH]c2ccc(Cl)cc12)NCCOc1ccccc1OCC1CC1`, the Ki in assay [1] and in assay [2] was 16 nM each time. In turn, `COc1cc2nc(N(C)CCCNC(=O)C3CCCO3)nc(N)c2cc1OC` (centres undefined) [N-{3-[(4-amino-6,7-dimethoxyquinazolin-2-yl)(methyl)amino]propyl}tetrahydrofuran-2-carboxamide] yielded a Ki in assay [2] of 10 nM.

The compound `COc1cc2nc(N3CCN(C(=O)C4CCCO4)CC3)nc(N)c2cc1OC` (centres undefined) [6,7-dimethoxy-2-[4-(tetrahydrofuran-2-ylcarbonyl)piperazin-1-yl]quinazolin-4-amine] came in with a Ki in assay [2] of 2 nM.

Turning to `Cc1c[nH]c(=O)n(CCCN2CCN(c3ccc(F)cc3OCC(F)(F)F)CC2)c1=O`, the Ki in assay [1] is 100 nM; in assay [2], 79 nM.

As to `COc1ccccc1N1CCN(CCCNc2c(C)c(=O)n(C)c(=O)n2C)CC1` [Urapidil-5-methyl], the inhibitory constant (Ki) came out at 10 nM in assay [1] and 40 nM in assay [2]. In the case of `COc1cc2nc(N3CCN(C(=O)C4COc5ccccc5O4)CC3)nc(N)c2cc1OC` (centres undefined) [UK 33,274], the Ki in assay [2] amounted to 1 nM.
